Results from patent publication US8722849B2, “Polypeptides” (Novo Nordisk A/S, priority 2011, dated 2014).
Read-outs that look alike come from different tables or passages of the source. Starred links: 1 amine or outer side, 2 acyl side, 3 side chain; linkers in the order of their positions; H or OH if unused. Positions of bridges follow the written chain, without caps; N, C: chain ends. Residues, ends and D or L forms follow the SMILES beside them. Groups on a side chain read outwards from the residue. *: point of attachment. C20 diacid = O=C(O)CCCCCCCCCCCCCCCCCCC(=O)*; C18 diacid = O=C(O)CCCCCCCCCCCCCCCCC(=O)*; γGlu = O=C(O)[C@H](CCC(=O)[*:2])N[*:1]; AEEA = NCCOCCOCC(=O)O

Key:
[1] = Assay (III) ThT fibrillation assay for physical stability; assay type: physicochemical; conditions: ThT fibrillation assay
How it was run: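 Freshly prepared formulations, pH-adjusted, with 1 μM ThT; four or eight replicates incubated at 37 °C under 960 rpm orbital shaking. Fluorescence (ex 444/em 485 nm) read every 20 min; […]. Peptide concentration measured by RP-HPLC before and after the run.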

[2] = target: T1, human calcitonin receptor (Homo sapiens, UniProt P30988); test: Assay (II)a functional CRE-luciferase assay, human calcitonin receptor; assay type: cell-based
T1 construct: expressed in transfected cells; host or cells: BHK570
T1 sequence (P30988 25-474): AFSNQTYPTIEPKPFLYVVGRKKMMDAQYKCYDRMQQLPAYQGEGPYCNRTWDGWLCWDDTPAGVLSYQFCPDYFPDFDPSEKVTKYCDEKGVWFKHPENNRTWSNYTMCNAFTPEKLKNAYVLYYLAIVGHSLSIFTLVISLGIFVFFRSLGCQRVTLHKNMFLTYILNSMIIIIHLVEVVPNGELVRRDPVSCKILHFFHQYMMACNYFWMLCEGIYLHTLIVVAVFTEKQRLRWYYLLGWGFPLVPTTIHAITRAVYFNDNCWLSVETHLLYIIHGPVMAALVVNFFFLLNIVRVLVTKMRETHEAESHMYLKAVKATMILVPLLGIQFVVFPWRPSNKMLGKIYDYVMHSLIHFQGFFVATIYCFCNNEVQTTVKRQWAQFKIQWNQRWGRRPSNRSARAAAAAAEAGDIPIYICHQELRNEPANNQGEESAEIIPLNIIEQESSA

[3] = Assay (IV) determination of solubility; assay type: physicochemical
How it was run: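 Eight 100 mM buffers (glycylglycine pH 3.0–5.0, bistrispropane pH 6.0–8.0) each received an equal volume of polypeptide dissolved in water at ~500 nmol/ml. Soluble polypeptide was measured by HPLC following 18 hours at room temperature and centrifugation.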

[4] = target: T2, human amylin receptor (amylin 3(a) receptor: human calcitonin receptor + RAMP-3) (Homo sapiens, UniProt O60896+P30988); test: Assay (II)a functional CRE-luciferase assay, human amylin receptor; assay type: cell-based; conditions: Table 2; BHK amylin 3(a)-receptor/CRE-luc cells
T2 construct: expressed in transfected cells; host or cells: BHK570
T2 sequence (P30988 25-474): T1 sequence (P30988 25-474)
T2 sequence (O60896 24-148 partner): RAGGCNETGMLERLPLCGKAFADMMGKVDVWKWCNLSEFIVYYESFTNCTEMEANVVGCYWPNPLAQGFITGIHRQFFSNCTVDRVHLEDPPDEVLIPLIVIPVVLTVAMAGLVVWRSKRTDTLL

[5] = bistrispropane buffer, pH 6, pH 6.0, read-out: Solubility pH 6.0
[6] = bistrispropane buffer, pH 6.5, pH 6.5, read-out: Solubility pH 6.5
[7] = bistrispropane buffer, pH 7, pH 7.0, 18 hours at room temperature, Table 3, read-out: Solubility pH 7.0
[8] = bistrispropane buffer, pH 7, pH 7.0, read-out: Solubility pH 7.0
[9] = bistrispropane buffer, pH 7.5, pH 7.5, read-out: Solubility pH 7.5
[10] = bistrispropane buffer, pH 8, pH 8.0, read-out: Solubility pH 8.0
[11] = glycylglycine buffer, pH 3, pH 3.0, read-out: Solubility pH 3.0
[12] = glycylglycine buffer, pH 4, pH 4.0, 18 hours at room temperature, Table 2, read-out: Solubility pH 4.0
[13] = glycylglycine buffer, pH 4, pH 4.0, read-out: Solubility pH 4.0
[14] = glycylglycine buffer, pH 5, pH 5.0, read-out: Solubility pH 5.0
[15] = Table 7, human calcitonin (CTa) receptor

ThT pH 4.0 lag time (h) [1] [h] | EC50 ([2]; Table 11, read-out: CTa receptor human EC50) [nM] | solubility at 18 h [3, 5] [µM] | solubility at 18 h [3, 6] [µM] | solubility at 18 h [3, 7] [µM] | solubility at 18 h [3, 8] [µM] | solubility at 18 h [3, 9] [µM] | solubility at 18 h [3, 10] [µM] | solubility at 18 h [3, 11] [µM] | solubility at 18 h [3, 12] [µM] | solubility at 18 h [3, 13] [µM] | solubility at 18 h [3, 14] [µM] | EC50 [4] [nM] | EC50 [2, 15] [nM] | Structure (SMILES)
3 | 4.3 | > 200 | > 200 | > 200 | > 200 | > 200 | > 200 | > 200 | > 200 | > 200 | > 200 | 0.456 | – | CC[C@H](C)[C@H](NC(=O)[C@@H]1CCCN1C(=O)CNC(=O)[C@H](Cc1ccccc1)NC(=O)[C@H](CC(N)=O)NC(=O)[C@H](CC(N)=O)NC(=O)[C@H](CO)NC(=O)[C@H](CO)NC(=O)[C@H](Cc1c[nH]cn1)NC(=O)[C@H](CCCCNC(=O)COCCOCCNC(=O)COCCOCCNC(=O)CC[C@H](NC(=O)CCCCCCCCCCCCCCCCC(=O)O)C(=O)O)NC(=O)[C@H](CC(C)C)NC(=O)[C@H](Cc1ccccc1)NC(=O)[C@H](CCC(=O)O)NC(=O)[C@H](C)NC(=O)[C@H](CC(C)C)NC(=O)[C@H](CCCNC(=N)N)NC(=O)[C@H](CCC(N)=O)NC(=O)[C@@H](NC(=O)[C@H](C)NC(=O)[C@@H]1CSSC[C@H](NC(=O)[C@@H](N)CCCCN)C(=O)N[C@@H](CC(N)=O)C(=O)N[C@@H]([C@@H](C)O)C(=O)N[C@@H](C)C(=O)N[C@@H]([C@@H](C)O)C(=O)N1)[C@@H](C)O)C(=O)N[C@@H](CC(C)C)C(=O)N1CCC[C@H]1C(=O)N1CCC[C@H]1C(=O)N[C@H](C(=O)N[C@@H](CC(N)=O)C(=O)N[C@H](C(=O)NCC(=O)N[C@@H](CO)C(=O)N[C@@H](CC(N)=O)C(=O)N[C@H](C(=O)N[C@@H](Cc1ccc(O)cc1)C(N)=O)[C@@H](C)O)C(C)C)[C@@H](C)O [Example 80, N-epsilon17-[2-(2-{2-[2-(2-{2-[(S)-4-Carboxy-4-(17-carboxyheptadecanoylamino)butyrylamino]ethoxy}ethoxy)acetylamino]ethoxy}ethoxy)acetyl]-[Glu14,Lys17]-pramlintide] (H-KCNTATCATQRLAEFLK([AEEA-AEEA-γGlu-C18 diacid])HSSNNFGPILPPTNVGSNTY-NH2; disulfide 2-7)
24 | – | > 200 | > 200 | > 200 | > 200 | > 200 | > 200 | > 200 | > 200 | > 200 | > 200 | 0.0955 | 0.0705 | CC[C@H](C)[C@H](NC(=O)[C@@H]1CCCN1C(=O)CNC(=O)[C@H](Cc1ccccc1)NC(=O)[C@H](CC(N)=O)NC(=O)[C@H](CC(N)=O)NC(=O)[C@H](CO)NC(=O)[C@H](CO)NC(=O)[C@H](Cc1c[nH]cn1)NC(=O)[C@H](Cc1c[nH]cn1)NC(=O)[C@H](CC(C)C)NC(=O)[C@H](Cc1ccccc1)NC(=O)[C@H](CCC(=O)O)NC(=O)[C@H](C)NC(=O)[C@H](CC(C)C)NC(=O)[C@H](CCCNC(=N)N)NC(=O)[C@H](CCC(N)=O)NC(=O)[C@@H](NC(=O)[C@H](C)NC(=O)[C@@H]1CSSC[C@H](NC(=O)[C@H](CCCCN)NC(=O)CNC(=O)CC[C@H](NC(=O)CCCCCCCCCCCCCCCCCCC(=O)O)C(=O)O)C(=O)N[C@@H](CC(N)=O)C(=O)N[C@@H]([C@@H](C)O)C(=O)N[C@@H](C)C(=O)N[C@@H]([C@@H](C)O)C(=O)N1)[C@@H](C)O)C(=O)N[C@@H](CC(C)C)C(=O)N1CCC[C@H]1C(=O)N1CCC[C@H]1C(=O)N[C@H](C(=O)N[C@@H](CC(N)=O)C(=O)N[C@H](C(=O)NCC(=O)N[C@@H](CO)C(=O)N[C@@H](Cc1c[nH]cn1)C(=O)N[C@H](C(=O)N[C@@H](Cc1ccc(O)cc1)C(N)=O)[C@@H](C)O)C(C)C)[C@@H](C)O [Example 81, N-alpha-[(S)-4-Carboxy-4-(19-carboxynonadecanoylamino)butyryl]-Gly-[Glu14,His17,His35]-pramlintide] ({C20 diacid-γGlu}-GKCNTATCATQRLAEFLHHSSNNFGPILPPTNVGSHTY-NH2; disulfide 3-8 (inferred); C-terminus assumed)
14 | – | > 200 | > 200 | > 200 | > 200 | > 200 | > 200 | > 200 | > 200 | > 200 | > 200 | 0.108 | 0.288 | CC[C@H](C)[C@H](NC(=O)[C@@H]1CCCN1C(=O)CNC(=O)[C@H](Cc1ccccc1)NC(=O)[C@H](CC(N)=O)NC(=O)[C@H](CC(N)=O)NC(=O)[C@H](CO)NC(=O)[C@H](CO)NC(=O)[C@H](Cc1c[nH]cn1)NC(=O)[C@H](Cc1c[nH]cn1)NC(=O)[C@H](CC(C)C)NC(=O)[C@H](Cc1ccccc1)NC(=O)[C@H](CCC(=O)O)NC(=O)[C@H](C)NC(=O)[C@H](CC(C)C)NC(=O)[C@H](CCCNC(=N)N)NC(=O)[C@H](CCC(N)=O)NC(=O)[C@@H](NC(=O)[C@H](C)NC(=O)[C@@H]1CSSC[C@H](NC(=O)[C@H](CCC(=O)O)NC(=O)COCCOCCNC(=O)COCCOCCNC(=O)CC[C@H](NC(=O)CCCCCCCCCCCCCCCCC(=O)O)C(=O)O)C(=O)N[C@@H](CC(N)=O)C(=O)N[C@@H]([C@@H](C)O)C(=O)N[C@@H](C)C(=O)N[C@@H]([C@@H](C)O)C(=O)N1)[C@@H](C)O)C(=O)N[C@@H](CC(C)C)C(=O)N1CCC[C@H]1C(=O)N1CCC[C@H]1C(=O)N[C@H](C(=O)N[C@@H](CC(N)=O)C(=O)N[C@H](C(=O)NCC(=O)N[C@@H](CO)C(=O)N[C@@H](CC(N)=O)C(=O)N[C@H](C(=O)N1CCC[C@H]1C(N)=O)[C@@H](C)O)C(C)C)[C@@H](C)O [Example 82, N-alpha-[2-(2-{2-[2-(2-{2-[(S)-4-Carboxy-4-(17-carboxyheptadecanoylamino)butyrylamino]ethoxy}ethoxy)acetylamino]ethoxy}ethoxy)acetyl]-[Glu1,Glu14,His17,Pro37]-pramlintide] ({C18 diacid-γGlu-AEEA-AEEA}-ECNTATCATQRLAEFLHHSSNNFGPILPPTNVGSNTP-NH2; disulfide 2-7 (inferred); C-terminus assumed)
